In patent publication US20060258647A1, “Treatment of maladaptive substance use with cholecystokinin (CCK) antagonists” (The Regents of the University of California, priority 2005, published 2006):
Entries after “also recorded” stand apart in the source; their conditions may differ.

Key:
Sprague-Dawley rats [1] = assay: Expression of morphine CPP after microinjection into anterior or posterior nucleus accumbens (NAcc); assay type: in vivo, rat; details: CCK-4 10 ng, CCK-8 100 ng (legend 10 ng), raclopride 4 μg; for expression of morphine CPP, microinjected independently into anterior NAcc: L-365, 260 1 ng (p=0.002), SCH-23390 2 μg; for expression of morphine CPP, microinjected independently into anterior NAcc / expression of morphine CPP, microinjected independently into posterior NAcc: lorglumide 15 ng; for expression of morphine CPP, microinjected independently into posterior NAcc: L-365, 260 1 ng (p=0.021), SCH-23390 2 μg (p=0.049); for effect of co-injection on the L-365, 260 effect (attenuation) on morphine CPP, anterior NAcc: co-injected with L-365, 260 into anterior NAcc; for effect of co-injection on the L-365, 260 effect (potentiation) on morphine CPP, posterior NAcc: co-injected with L-365, 260 into posterior NAcc
Description: (§1) 68 male Sprague-Dawley rats (Charles River, Wilmington, Mass.) weighing 275-300 grams at the onset of the study were individually housed in a temperature controlled environment (70° F.) and kept on a 12 hour light/dark cycle. Rat chow and water were available ad libitum. Animals were tested at the same time during their light cycle each day. All experimental protocols were approved by the Institutional Animal Care and Use Committee and were conducted in accordance with the Guide for the Care and Use of Laboratory Animals (N1H). 22 rats were used for systemic injections and the remaining rats were cannulated for NAcc microinjections.
Animals were anesthetized with a ketamine-xylazine mixture and maintained on isoflurane (0.5 liter/min) as needed for the duration of surgery. Animals were placed in a stereotaxic frame and were implanted with bilateral 26-gauge stainless steel chronic guide cannulae (Plastics One, Roanoke, V A) into either the Anterior (AP, 2.2; ML, ±1.1; DV, −5.5) or Posterior (AP, 1.2; ML, ±1.1; DV, −5.5) NAcc. Cannulae were secured to the skull with dental cement. At the end of the surgical procedure, animals were treated with penicillin and topical antibiotics. A stainless steel dummy cannula (Plastics One) was inserted into each guide cannula and remained in place when the guide cannulae were not in use. Animals were allowed a 1-week recovery period prior to behavioral testing.
(§2) Animals were trained in 3 chamber place conditioning boxes (Med Associates) in which 2 chambers (28×21×21 cm) that differed in color (one black, one white), light level, and texture were separated by a neutral gray chamber (12×21×21). During the initial baseline period, animals were placed in the central chamber and were allowed to freely explore all 3 chambers for a period of 30 minutes. Beam breaks, entries, and time spent in each chamber were automatically recorded using infrared beams. […] During each conditioning session, animals were injected with either morphine or saline and were then immediately confined to one of the two larger chambers for 60 minutes. Rats received 2 conditioning sessions per day for a period of 4 days. Conditioning sessions were separated by a minimum period of 5 hours. Animals were tested for expression of conditioned place preference 1 day after the final conditioning session. Drug side and order were counter-balanced. […] Systemic L-365, 260 was administered 30 minutes before the onset of CPP testing.
All injection sites were based on the atlas of Paxinos and Watson (1998). Bilateral injections were made into either the Anterior (AP, 2.2; ML, +1.1; DV, −5.5) or Posterior (AP, 1.2; ML, ±1.1; DV, −5.5) NAcc. Each injection was made using a 1 μl syringe (Hamilton, Reno, Nev.) attached to 20 cm of PE 50 tubing connected to a 33-gauge injection cannula (Plastics One). Microinjections were given at a rate of 0.5 μl per minute using a syringe pump (kd Scientific, Holliston, M A). A volume of 0.5 μl was injected into each side of the NAcc. Injection cannulae extended 2 mm beyond guide cannulae and were left in place for 1 minute following microinjections to minimize the backflow of drug solution. 10 minutes after microinjection was completed, animals were placed into the central CPP chamber and allowed to explore for a period of 30 minutes. Animals received a maximum of four bilateral NAcc microinjections. The number of microinjections each animal received was determined by the persistence of place preference. […] Microinjection drug order was counterbalanced and began a minimum of one day following the test for expression of morphine CPP. Animals were tested for baseline expression of morphine CPP 24 hours following each microinjection to ensure the return to pre-injection baseline. At the conclusion of the experiment, animals were anesthetized with pentobarbital and perfused intracardially through the ascending aorta with 0.1M phosphate buffered saline followed by 10% formalin. […]

humans = details: literature (Murphy et al., 1993 and others); cited from earlier work
Sprague-Dawley rats [2] = assay: Expression of morphine conditioned place preference (CPP) after systemic administration; assay type: in vivo, rat; details: 1 mg/kg systemic (i.p.)
Description: as §1
as §2, with “testing. […]” for “testing.”
*Difference scores were calculated by subtracting the time spent in the saline paired chamber from the time spent in the morphine paired chamber during a test session. […]

Rats = assay: Ethanol consumption / reinstatement with foot shock; assay type: in vivo, rat
Description: Rats (n=18) were administered 3 daily doses of systemic L-365 (1 mg/kg) prior to a one-hour ethanol (10%) access session. On the second day of L-365, 260 administration, animals were administered 0.8 mA of shock (0.5 seconds every 40 seconds for a period of 15 minutes) in ethanol access chambers directly prior to the onset of their one-hour access session. […] This was a randomized cross over design with each animal serving as its own control.
L-365, 260 had no effect on ethanol consumption when shock was administered during extinction (n=12). Animals were administered 3 daily doses of systemic L-365, 260 after ethanol consumption was extinguished. On the second day of L-365, 260 administration, animals were administered 0.8 mA of shock (0.5 seconds every 40 seconds for a period of 15 minutes) in the ethanol access chambers directly prior to the onset of their one-hour extinction session. This was a randomized cross over design with each animal serving as its own control.
L-365 had no effect on ethanol reinstatement when shock was administered on the first day of re-initiation of ethanol access (n=12). Animals were administered 3 daily doses of systemic L-365, 260 after ethanol consumption was extinguished. On the first day of L-365, 260 administration, animals were administered 0.8 mA of shock (0.5 seconds every 40 seconds for a period of 15 minutes) in the ethanol access chambers directly prior to the onset of their one-hour reinstatement session. This was a randomized cross over design with each animal serving as its own control.

[3] = Jackson et al., 1994; cited from earlier work

| Molecule | expression of morphine CPP, microinjected independently into anterior NAcc (Sprague-Dawley rats [1]) | expression of morphine CPP, microinjected independently into anterior NAcc (Sprague-Dawley rats [1]; listed as Lorglumide) | expression of morphine CPP, microinjected independently into posterior NAcc (Sprague-Dawley rats [1]) | expression of morphine CPP, microinjected independently into posterior NAcc (Sprague-Dawley rats [1]; listed as Lorglumide) | side effects on administration to humans (humans) | expression of morphine CPP (Sprague-Dawley rats [2]; after acquisition of CPP, tested immediately after injection, p=0.006) | expression of morphine CPP (Sprague-Dawley rats [2]; tested 24 hours after injection, p=0.0009) | expression of morphine CPP (Sprague-Dawley rats [2]; tested 72 hours after injection, p=0.004) | ethanol consumption on the two days following shock (Rats; 3 daily systemic doses 1 mg/kg before one-hour ethanol (10%) access, 0.8 mA shock on second day, n=18, vs saline controls) | ethanol consumption when shock was administered during extinction (Rats; 3 daily systemic doses after ethanol consumption was extinguished, shock on second day, n=12) | ethanol reinstatement when shock was administered on the first day of re-initiation of ethanol access (Rats; 3 daily systemic doses after extinction, shock on first day, n=12) | differentiation from saline in animal discrimination studies [3] | expression of morphine CPP, microinjected independently into anterior NAcc (Sprague-Dawley rats [1]; listed as Raclopride) | effect of co-injection on the L-365, 260 effect (attenuation) on morphine CPP, anterior NAcc (Sprague-Dawley rats [1]) | effect of co-injection on the L-365, 260 effect (potentiation) on morphine CPP, posterior NAcc (Sprague-Dawley rats [1]) | expression of morphine CPP, microinjected independently into posterior NAcc (Sprague-Dawley rats [1]; listed as Raclopride) |
| --- | --- | --- | --- | --- | --- | --- | --- | --- | --- | --- | --- | --- | --- | --- | --- | --- |
| CCCCCN(CCCCC)C(=O)C(CCC(=O)O)NC(=O)c1ccc(Cl)c(Cl)c1 (stereo not shown) [lorglumide] | has no effect | had no effect | has no effect | had no effect | – | – | – | – | – | – | – | – | – | – | – | – |
| Cc1cccc(NC(=O)N[C@@H]2N=C(c3ccccc3)c3ccccc3N(C)C2=O)c1 [L-365, 260, (3R-(+)-2,3-dihydro-1-methyl-2-oxo-5-phenyl-1H-1,4-benzodiazepin-3-yl)-N′-(3-methylphenyl)urea] | attenuates | – | potentiates | – | no significant side effects | attenuates | attenuates | attenuates | consumed significantly less ethanol than saline controls | had no effect | had no effect | cannot be differentiated from saline | – | – | – | – |
| CCN1CCC[C@H]1CNC(=O)c1c(O)c(Cl)cc(Cl)c1OC [raclopride] | has no effect | – | has no effect | – | – | – | – | – | – | – | – | – | had no effect | reverse the effects of L-365, 260 | reverse the effects of L-365, 260 | had no effect |
| CCK-8: cholecystokinin peptide, CCKB receptor ligand precursor, obtained from Research Biochemicals | neither of which had an effect; also recorded: neither of which has an effect | – | neither of which had an effect; also recorded: neither of which has an effect | – | – | – | – | – | – | – | – | – | – | reversed | reversed | – |
| CCK-4 | neither of which had an effect; also recorded: neither of which has an effect | – | neither of which had an effect; also recorded: neither of which has an effect | – | – | – | – | – | – | – | – | – | – | reversed | reversed | – |
